In PubChem BioAssay AID220 (DTP/NCI, 2004):
Values joined by “and” are separate entries in the source; they are usually repeats but may differ in a detail not shown here. Identical values can stand only once. Results filed as inconclusive are left out.

Tested on: CD8F1 mice, subcutaneous mammary adenocarcinoma, T/C%
Assay: NCI In Vivo Anticancer Drug Screen. Data for tumor model Mammary Adenocarcinoma CD8F1 (subcutaneous) in CD8F1
Details: higher = larger tumour
Outline: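 Antitumor activity is assessed in transplantable-tumor mice by comparing the treated group with a vehicle-treated control group. Survival or tumor size serves as the measure, reported as T divided by C.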

[1] = endpoint: median tumor weight change, dose: 62.5 mg/kg/injection, schedule: Q01DX001 (ip), vehicle: saline with Tween-80
[2] = endpoint: median tumor weight change, dose: 125.0 mg/kg/injection, schedule: Q01DX001 (ip), vehicle: saline with Tween-80
[3] = endpoint: median tumor weight change, dose: 250.0 mg/kg/injection, schedule: Q01DX001 (ip), vehicle: saline with Tween-80
[4] = endpoint: median tumor weight change, dose: 1000.0 mg/kg/injection, schedule: Q01DX001 (ip), vehicle: saline with Tween-80

For `CC(C)[C@](O)(C(=O)OCC1=CCN2CC[C@@H](O)[C@@H]12)[C@H](C)O`, the T/C (endpoint: median tumor weight change, dose: 125.0 mg/kg/injection, schedule: Q01DX001 (ip), vehicle: water) was 78 % of control and the T/C (endpoint: median tumor weight change, dose: 250.0 mg/kg/injection, schedule: Q01DX001 (ip), vehicle: water) was 179 % of control.

With `CCNC(C)(C)C(SSS)c1ccco1` (stereo unspecified) the T/C (endpoint: median tumor weight change, dose: 31.25 mg/kg/injection, schedule: Q01DX001 (ip), vehicle: saline with Tween-80) was 97 % of control, the T/C [1] was 87 % of control and the T/C [2] was 65 % of control. The T/C [3] was 59 % of control.

For `COC1=C(N)C(=O)c2nc(-c3nc(C(=O)O)c(C)c(-c4ccc(OC)c(OC)c4O)c3N)ccc2C1=O`, the T/C (endpoint: median tumor weight (est.), dose: 0.1 mg/kg/injection, schedule: Q07DX005 (ip), vehicle: Klucel (hydroxypropylcellulose) (HPC)) was 69 % of control, the T/C (endpoint: median tumor weight (est.), dose: 0.1 mg/kg/injection, schedule: Q07DX005 (ip), vehicle: saline) was 16 % of control and 34 % of control and the T/C (endpoint: median tumor weight (est.), dose: 0.12 mg/kg/injection, schedule: Q07DX005 (ip), vehicle: Klucel (hydroxypropylcellulose) (HPC)) was 10 % of control. For the same compound, the T/C (endpoint: median tumor weight (est.), dose: 0.2 mg/kg/injection, schedule: Q07DX005 (ip), vehicle: Klucel (hydroxypropylcellulose) (HPC)) was 12 % of control, the T/C (endpoint: median tumor weight (est.), dose: 0.2 mg/kg/injection, schedule: Q07DX005 (ip), vehicle: saline) was 11 % of control and 20 % of control and the T/C (endpoint: median tumor weight (est.), dose: 0.4 mg/kg/injection, schedule: Q07DX005 (ip), vehicle: Klucel (hydroxypropylcellulose) (HPC)) was 7 % of control. For the same compound, the T/C (endpoint: median tumor weight (est.), dose: 0.4 mg/kg/injection, schedule: Q07DX005 (ip), vehicle: saline) was 3 % of control and the T/C (endpoint: median tumor weight change, dose: 0.5 mg/kg/injection, schedule: Q01DX001 (ip), vehicle: Klucel (hydroxypropylcellulose) (HPC)) was 32 % of control and 41 % of control.

With `O=c1[nH]cccc1O` the T/C [2] was 60 % of control and the T/C [3] was 35 % of control.

In the case of `O=c1[nH]cnc2c1ccn2C1OC(CO)C(O)C1O` (stereo unspecified), the T/C (endpoint: median tumor weight change, dose: 24.0 mg/kg/injection, schedule: Q01DX001 (ip), vehicle: saline) is reported as 74 % of control and the T/C (endpoint: median tumor weight change, dose: 48.0 mg/kg/injection, schedule: Q01DX001 (ip), vehicle: saline) is reported as 62 % of control.

`O=C1CN(Cc2ccc3c(c2)OCO3)NO1` was tested, and the T/C [1] was 80 % of control and 84 % of control, the T/C [2] was 113 % of control and 115 % of control and the T/C [3] was 80 % of control and 83 % of control. The T/C [4] was 88 % of control.

With `CN(C=O)C(C(=O)Nc1cccc2c(OC(=O)C(N(C)C=O)(N(C)C=O)N(C)C=O)c(N=Nc3ccc(S(=O)(=O)Nc4nccs4)cc3)cc(N=Nc3ccc(S(=O)(=O)Nc4nccs4)cc3)c12)(N(C)C=O)N(C)C=O` (tested in a mixture with another compound) the T/C [3] was 100 % of control, the T/C [4] was 119 % of control and the T/C (endpoint: median tumor weight change, dose: 2000.0 mg/kg/injection, schedule: Q01DX001 (ip), vehicle: saline with Tween-80) was 63 % of control.

In the case of `COc1ccc2c(c1[N+](=O)[O-])CC[C@@H]1[C@@H]2CC[C@]2(C)C(=O)CC[C@@H]12`, the T/C [1] is reported as 90 % of control, the T/C [3] is reported as 84 % of control and the T/C (endpoint: median tumor weight change, dose: 500.0 mg/kg/injection, schedule: Q01DX001 (ip), vehicle: saline with Tween-80) is reported as 100 % of control.

`O=C1NC(=O)C2C3C=CC(C12)C1C2C(=O)NC(=O)C2C31` (stereo unspecified) was tested, and the T/C (endpoint: median tumor weight change, dose: 18.0 mg/kg/injection, schedule: Q01DX005 (ip), vehicle: water) was 62 % of control, the T/C (endpoint: median tumor weight change, dose: 30.0 mg/kg/injection, schedule: Q01DX005 (ip), vehicle: water) was 17 % of control and the T/C (endpoint: median tumor weight change, dose: 50.0 mg/kg/injection, schedule: Q01DX005 (ip), vehicle: water) was -5 % of control. For the same compound, the T/C (endpoint: median tumor weight change, dose: 54.0 mg/kg/injection, schedule: Q01DX001 (ip), vehicle: saline) was 64 % of control, the T/C (endpoint: median tumor weight change, dose: 62.0 mg/kg/injection, schedule: Q01DX001 (ip), vehicle: saline with Tween-80) was 70 % of control and the T/C [1] was 78 % of control. The T/C (endpoint: median tumor weight change, dose: 90.0 mg/kg/injection, schedule: Q01DX001 (ip), vehicle: saline) was 30 % of control, the T/C [2] was 15 % of control and 27 % of control and the T/C [3] was -25 % of control.

In the case of `CCN=C=NCCCN(C)C`, the T/C (endpoint: median tumor weight change, dose: 3.9 mg/kg/injection, schedule: Q01DX001 (ip), vehicle: saline) is reported as 115 % of control, the T/C (endpoint: median tumor weight change, dose: 7.81 mg/kg/injection, schedule: Q01DX001 (ip), vehicle: saline) is reported as 112 % of control and the T/C (endpoint: median tumor weight change, dose: 15.63 mg/kg/injection, schedule: Q01DX001 (ip), vehicle: saline) is reported as 92 % of control. The T/C (endpoint: median tumor weight change, dose: 31.25 mg/kg/injection, schedule: Q01DX001 (ip), vehicle: saline) was 109 % of control and the T/C (endpoint: median tumor weight change, dose: 62.5 mg/kg/injection, schedule: Q01DX001 (ip), vehicle: saline) was 67 % of control.

In the case of `Brc1ccc(C[N+]23CN4CN(CN(C4)C2)C3)cc1`, the T/C (endpoint: median tumor weight (est.), dose: 25.0 mg/kg/injection, schedule: Q07DX005 (ip), vehicle: saline with Tween-80) is reported as 90 % of control, the T/C (endpoint: median tumor weight (est.), dose: 50.0 mg/kg/injection, schedule: Q07DX005 (ip), vehicle: saline with Tween-80) is reported as 96 % of control and the T/C (endpoint: median tumor weight (est.), dose: 100.0 mg/kg/injection, schedule: Q07DX005 (ip), vehicle: saline with Tween-80) is reported as 180 % of control.

`COc1cccc2c1C(=O)c1c(O)c3c(c(O)c1C2=O)C[C@@](O)(/C(C)=N/NC(=O)c1cccc([N+](=O)[O-])c1)C[C@@H]3OC1CC(N)C(O)C(C)O1` (stereo partly specified) was tested, and the T/C (endpoint: mean tumor weight, dose: 4.0 mg/kg/injection, schedule: Q07DX004 (ip), vehicle: saline) was 98 % of control, the T/C (endpoint: mean tumor weight, dose: 8.0 mg/kg/injection, schedule: Q07DX004 (ip), vehicle: saline) was 51 % of control and the T/C (endpoint: mean tumor weight, dose: 16.0 mg/kg/injection, schedule: Q07DX004 (ip), vehicle: saline) was 94 % of control. The T/C (endpoint: mean tumor weight, dose: 32.0 mg/kg/injection, schedule: Q07DX004 (ip), vehicle: saline) was 1 % of control, the T/C (endpoint: median tumor weight (est.), dose: 4.0 mg/kg/injection, schedule: Q07DX005 (ip), vehicle: saline) was 93 % of control and the T/C (endpoint: median tumor weight (est.), dose: 8.0 mg/kg/injection, schedule: Q07DX005 (ip), vehicle: saline) was 41 % of control. The T/C (endpoint: median tumor weight (est.), dose: 16.0 mg/kg/injection, schedule: Q07DX005 (ip), vehicle: saline) was 5 % of control.

In the case of `OC(CCl)CN1CC[N+]2(CC1)CC[N+]1(CCN(CC(O)CCl)CC1)CC2` (stereo unspecified), the T/C (endpoint: median tumor weight (est.), dose: 12.5 mg/kg/injection, schedule: Q07DX005 (ip), vehicle: saline) is reported as 57 % of control, the T/C (endpoint: median tumor weight (est.), dose: 25.0 mg/kg/injection, schedule: Q07DX005 (ip), vehicle: saline) is reported as 67 % of control and the T/C (endpoint: median tumor weight (est.), dose: 50.0 mg/kg/injection, schedule: Q07DX005 (ip), vehicle: saline) is reported as 80 % of control. For the same compound, the T/C (endpoint: median tumor weight (est.), dose: 100.0 mg/kg/injection, schedule: Q07DX005 (ip), vehicle: saline) was 43 % of control, the T/C (endpoint: median tumor weight (est.), dose: 200.0 mg/kg/injection, schedule: Q07DX005 (ip), vehicle: saline) was 36 % of control and the T/C (endpoint: median tumor weight (est.), dose: 400.0 mg/kg/injection, schedule: Q07DX005 (ip), vehicle: saline) was 11 % of control. For the same compound, the T/C (endpoint: median tumor weight change, dose: 50.0 mg/kg/injection, schedule: Q01DX001 (ip), vehicle: saline) was 101 % of control, the T/C (endpoint: median tumor weight change, dose: 100.0 mg/kg/injection, schedule: Q01DX001 (ip), vehicle: saline) was 111 % of control and the T/C (endpoint: median tumor weight change, dose: 200.0 mg/kg/injection, schedule: Q01DX001 (ip), vehicle: saline) was 96 % of control and 119 % of control. For the same compound, the T/C (endpoint: median tumor weight change, dose: 800.0 mg/kg/injection, schedule: Q01DX001 (ip), vehicle: saline) was 49 % of control and 56 % of control.

For `COC1C(O)CC(OC2CC(Oc3cc4cc5c(c(O)c4c(O)c3C)C(=O)[C@@H](OC3CC(OC4CC(OC6CC(C)(O)C(OC(C)=O)C(C)O6)C(O)C(C)O4)C(O)C(C)O3)[C@H]([C@H](OC)C(=O)[C@@H](O)[C@@H](C)O)C5)OC(C)C2OC(C)=O)OC1C` (stereo partly specified), the T/C (endpoint: median tumor weight (est.), dose: 0.04 mg/kg/injection, schedule: Q07DX005 (ip), vehicle: saline) was 46 % of control, the T/C (endpoint: median tumor weight (est.), dose: 0.09 mg/kg/injection, schedule: Q07DX005 (ip), vehicle: saline) was 93 % of control and the T/C (endpoint: median tumor weight (est.), dose: 0.36 mg/kg/injection, schedule: Q07DX005 (ip), vehicle: saline) was 70 % of control. The T/C (endpoint: median tumor weight (est.), dose: 0.72 mg/kg/injection, schedule: Q07DX005 (ip), vehicle: saline) was 76 % of control and 92 % of control, the T/C (endpoint: median tumor weight change, dose: 0.25 mg/kg/injection, schedule: Q01DX001 (ip), vehicle: saline) was 63 % of control and the T/C (endpoint: median tumor weight change, dose: 0.5 mg/kg/injection, schedule: Q01DX001 (ip), vehicle: saline) was 42 % of control. The T/C (endpoint: median tumor weight change, dose: 1.0 mg/kg/injection, schedule: Q01DX001 (ip), vehicle: saline) was 44 % of control.

With `Cn1c(=O)c2ncnnc2n(C)c1=O` the T/C (endpoint: median tumor weight (est.), dose: 4.7 mg/kg/injection, schedule: Q07DX005 (ip), vehicle: Klucel (hydroxypropylcellulose) (HPC)) was 59 % of control, the T/C (endpoint: median tumor weight (est.), dose: 9.4 mg/kg/injection, schedule: Q07DX005 (ip), vehicle: Klucel (hydroxypropylcellulose) (HPC)) was 63 % of control and the T/C (endpoint: median tumor weight (est.), dose: 18.8 mg/kg/injection, schedule: Q07DX005 (ip), vehicle: Klucel (hydroxypropylcellulose) (HPC)) was 52 % of control.

In the case of `O=C1C=CC(=O)N1c1ccc(Cl)cc1`, the T/C (endpoint: median tumor weight (est.), dose: 5.0 mg/kg/injection, schedule: Q07DX003 (ip), vehicle: Klucel (hydroxypropylcellulose) (HPC)) is reported as 65 % of control and the T/C (endpoint: median tumor weight (est.), dose: 20.0 mg/kg/injection, schedule: Q07DX003 (ip), vehicle: Klucel (hydroxypropylcellulose) (HPC)) is reported as 109 % of control.

With `CCOC1=Cc2c(oc3c(C(C)(C)C)cc(OCC)cc23)OC(C(C)(C)C)=C1` the T/C (endpoint: median tumor weight change, dose: 15.6 mg/kg/injection, schedule: Q01DX001 (ip), vehicle: saline with Tween-80) was 114 % of control, the T/C (endpoint: median tumor weight change, dose: 15.62 mg/kg/injection, schedule: Q01DX001 (ip), vehicle: saline with Tween-80) was 98 % of control and the T/C [1] was 85 % of control and 106 % of control.

`CCCCOCN(COCCCC)C(C)Cc1ccccc1` (stereo unspecified) was tested, and the T/C [1] was 100 % of control, the T/C [2] was 85 % of control and the T/C [3] was 110 % of control. For the same compound, the T/C [4] was 80 % of control.
